This is an account of results in patent US11571459B2, “Methods for treating cancer using PS-targeting antibodies with immuno-oncology agents” (ONCXERNA THERAPEUTICS, INC., priority 2017, dated 2023).

One series concerns PS. Description: ELISA binding to PS-coated plates. The note with it: phospholipid-coated ELISA plates. As to the method: The 3G4 antibody was produced by immunizing mice with autologous, PS-positive endothelial cells, as reported in Ran et al., 2005. The 3G4 antibody was tested for binding to PS in a standard ELISA in the presence and absence of serum, and was initially characterized as being “serum-independent”, i.e., an antibody that binds to PS in the absence of serum.
In a follow-on study, the binding of the 2aG4 antibody to PS was tested in an ELISA in the presence of varying concentrations of human β2GPI.
These included binding to PS in ELISAs, FACS analyses using PS-positive cells and functional assays in the form of an NFAT surrogate ADCC bioassay (Larson et al., 2013).
In general terms: ELISA stands for enzyme-linked immunosorbent assay.

Series [1] deals with previously treated non-squamous NSCLC. The note with it: in vivo. How it is done:
The primary objective of this study was to compare the ORR (CR+PR) among the treatment arms. Secondary objectives included comparing PFS, DR, OS, safety and PK.
Additional blood draws were performed for these patients during Cycles 1 and 2 at specified time points.
Samples from the NSCLC Phase II trial of Example IX (PPHM 0902) were tested using the functional β2GPI assay of Example XII.

Series [2] deals with previously-treated Stage IIIb/IV non-squamous NSCLC. Description: Phase III trial of bavituximab plus docetaxel in NSCLC.
Description: This global, double-blind Phase III trial was initiated in 2012. Selection criteria were for patients with Stage IIIb/IV non-squamous NSCLC who progressed on platinum-doublet chemotherapy (should have progressed on appropriate targeted therapy if known EGFR or ALK mutation), with ECOG PS 0-1 and prior immunotherapy allowed (ECOG is the performance status scale defined by the Eastern Cooperative Oncology Group). […] The primary endpoint was overall survival (OS) and secondary endpoints included objective response rate (Independent Central Review, ICR), progression-free survival (ICR), safety, PK, Quality of Life (LCSS) and exploratory biomarkers, including immune correlates.
OS was analyzed by VeriStrat subgroups using Kaplan-Meier statistical methods.
A single cutoff method was first used to assess the patient β2GPI data.
The initial analyses described above prompted further, extensive analyses of the data in 592 evaluable patients. These analyses used a two cutoff method (Klein & Moeschberger, 2003).
Archival tissue obtained at the time of diagnosis was requested, but not required, in the Phase III trial of Example X. Formalin-fixed paraffin-embedded (FFPE) slides were stained with antibodies for a panel of lymphoid (or tumor) cell markers, as described in Feng et al., 2015: CD3+, CD8+, FoxP3+, PD-L1+, CD163+ and CK+ (cytokeratin, an epithelial carcinoma marker) using a mutliplex (6-plex) quantitative immunohistochemistry (IHC) assay (OPAL®, PerkinElmer, Waltham, Mass., USA) and using DAPI. The PD-L1 antibody used was the rabbit anti-PD-L1 antibody termed E1L3N® XP® (Cell Signaling Technology, (CST), Danvers, Mass., Catalogue #13684; Mahoney et al., 2015). Baseline PD-L1 expression was retrospectively scored on tumor cells (TC, i.e., CK+) and PD-L1 expressing tumor cells were classified according to their percentage within the total number of tumor cells using established assays and classifications (Fehrenbacher et al., 2016), as follows: TC3≥50%; TC2≥5% and ≤50%; TC1≥1% and <5%; and TC0<1%. Cox regression models for PD-L1 IHC subgroup populations were used for correlation with OS.
Kaplan-Meier statistical methods and Cox proportional hazard models were utilized to evaluate and contrast the correlation of peripheral (and intratumoral) IFNγ levels with OS based on a data cut from the Phase III trial (Example X) dated Feb.
Series [3] relates to previously untreated stage IV pancreatic cancer. Description: Phase II (PPHM 1002) gemcitabine with or without bavituximab. The class given is in vivo, human. The following applies: for median overall survival: at study closure. As to the method: The primary objective was to compare the OS of patients among the treatment arms. Secondary objectives included comparing PFS, ORR, DR and safety.
Gemcitabine (1000 mg/m^2) was given on days 1, 8, and 15 of each 28-day cycle (4 weeks) until disease progression or unacceptable toxicities. A total of 70 patients were enrolled to the study. In general, the patient population had very extensive disease burden, which may have reduced the response in both arms.
The levels of pre-treatment functional β2GPI ranged from 82.5 to 343.2 μg/ml for all patients. For these 31 patients, the mean level of pre-treatment functional β2GPI (219.2 μg/ml) was consistent with the average reported in the literature.

The nature of series [4]: Phase I dose escalation study of bavituximab monotherapy in refractory advanced solid tumors: PK, safety.
Protocol: Samples were collected from patients in the 0.1 and 0.3 mg/kg dose cohorts before the study, on days 0, 1, 2, 4, 7, 10, 14, and every 7 days from days 21 to 70. Samples were collected from patients in the 1 and 3 mg/kg dose cohorts before the study, on days 0, 1, 2, 4, 7, 14, 21, 22, 23, 25, and every 7 days from days 28 to 56.
[5] abbreviates: 70% of targeted OS events reached.
Where [6] appears, read: about 85% of targeted OS events.

For “2aG4: mouse IgG2a chimeric version of the 3G4 antibody”, the “binding to phospholipids in standard ELISA” value in the series with PS is “essentially the same affinity and binding profile as the 3G4 antibody”.
For `CC(=O)O[C@@]12CO[C@@H]1C[C@H](O)[C@@]1(C)C(=O)[C@H](O)C3=C(C)[C@@H](OC(=O)[C@H](O)[C@@H](NC(=O)OC(C)(C)C)c4ccccc4)C[C@@](O)([C@@H](OC(=O)c4ccccc4)[C@H]21)C3(C)C` [docetaxel, reference compound], the pharmacokinetic drug-drug interaction result in series [1] is on record as “exhibited similar pharmacokinetic characteristics with or without the administration of bavituximab”. Besides, the “median OS” value in series [2] (12 months follow-up, about 85% of targeted OS events) was 10.9 months. In addition, the mOS in series [2] (setting [5]) is listed as 10.8 months; in series [2] (IFNγ high, no subsequent IO), 9.2 months; in series [2] (IFNγ high, received subsequent IO), 13.5 months; in series [2] (IFNγ low, no subsequent IO) it was 10.8 months; in series [2] (IFNγ low, received subsequent IO) it was 12.1 months; in series [2] (VS Good patients (VeriStrat)) it was 11.8 months. Besides, the mOS is on record as 4.7 months in series [2] (VS Poor patients (VeriStrat)); 7.7 months in series [2] (functional β2GPI 200-240 μg/mL); 9.4 months in series [2] (functional β2GPI ≥200 μg/mL, 578 evaluable patients); 10.1 months in series [2] (functional β2GPI ≥200 μg/mL, 592 evaluable patients); 12.3 months in series [2] (functional β2GPI ≥200 μg/mL, with subsequent IO); 9.2 months in series [2] (functional β2GPI ≥200 μg/mL, without subsequent IO). The mOS stood at 10.4 months in series [2] (higher PD-L1 expression (TC1/2/3, ≥1%)); 11.1 months in series [2] (negative PD-L1 expression (TC0, <1%)); 12.6 months in series [2] (patients receiving subsequent IO); 10.2 months in series [2] (patients who did not receive subsequent IO); 10.6 months in series [2] (pre-treatment serum IFNγ high (≥ median 0.093 μg/mL)); 11.1 months in series [2] (pre-treatment serum IFNγ low (< median 0.093 μg/mL)). Also, the mOS in series [2] (β2GPI less than 200 μg/mL, with subsequent IO) is reported as 18.6 months; in series [2] (β2GPI less than 200 μg/mL, without subsequent IO), 11.6 months. Further, the “median PFS” value in series [2] (setting [5]) is 3.9 months. Moreover, the “Grade 3 or higher adverse events” value in series [2] (setting [6]) came to 60%. Also, the ORR in series [2] (setting [6]) is 11%. For the same molecule, in series [2] (setting [6]), the PFS is 4.1 months. Further, the “HR, PD-L1 TC0 versus TC1/2/3 within arm” value in series [2] (in vivo) was 0.93.
As to `Nc1ccn([C@@H]2O[C@H](CO)[C@@H](O)C2(F)F)c(=O)n1` [gemcitabine, reference compound], the median overall survival in series [3] is 5.2 months.
One may read the Cmax as the peak of the concentration-time curve. With Bavi, in series [4] (Cmax at 3 mg/kg expressed as molar concentration), the “Bavi” value came out at 0.389 µM. Moreover, in series [4] (bavituximab 3 mg/kg, maximum concentration in blood (Example II; Gerber et al., 2011)), the “Cmax” value worked out at 56.4 µg/mL.
“bavituximab plus gemcitabine: treatment arm: gemcitabine with weekly 3 mg/kg bavituximab” returned a median overall survival in series [3] of 5.6 months. Also, in series [3] (in vivo), the TEAE anemia worked out at 35.3%; the “TEAE fatigue, constipation and anorexia (each)” value was 32.4%; the TEAE nausea is given as 44.1%; the “response rate and survival probability at 1 year compared with gemcitabine only” value was “numerically higher response rate and survival probability at 1 year”.
